Literature values as cited in patent US5872104A, “Combinations and methods for reducing antimicrobial resistance” (Oridigm Corporation, priority 1994, dated 1999).
≈ marks a conversion by molar mass, not a printed value. Entries after “also recorded” stand apart in the source; their conditions may differ. Like-named read-outs stand apart in the source and are kept apart here.

Key:
anaerobic bacteria = conditions: cited from earlier work
[1] = tested on: Streptococcus agalactactiae (group B); conditions: in µg/mL; cited from earlier work
Listeria monocytogenes = conditions: in µg/mL; cited from earlier work
[2] = tested on: Streptococcus pyogenes (group A), erythromycin susceptible; conditions: cited from earlier work
[3] = tested on: Staphylococcus aureus, methicillin susceptible; conditions: in µg/mL; cited from earlier work
Clostridium perfringens = conditions: anaerobes; in µg/mL; cited from earlier work
Mycoplasma pneumoniae = conditions: in µg/mL; cited from earlier work
Chlamydia trachomatis = conditions: in µg/mL; cited from earlier work
Neisseria gonorrhoeae = conditions: in µg/mL; cited from earlier work
Bacteroides fragilis = conditions: anaerobes; in µg/mL; cited from earlier work
Campylobacter species = conditions: in µg/mL; cited from earlier work
H. influenzae = conditions: versus erythromycin; cited from earlier work
Haemophilus influenzae = conditions: in µg/mL; cited from earlier work
[4] = tested on: Chlamydia pneumoniae (formerly TWAR); conditions: in µg/mL; cited from earlier work
Legionella pneumophila = conditions: in µg/mL; cited from earlier work
Streptococcus pneumoniae = conditions: in µg/mL; cited from earlier work
Viridans streptococci = conditions: cited from earlier work
[5] = versus erythromycin; cited from earlier work
[6] = tested on: Staphylococcus aureus, methicillin resistant; conditions: cited from earlier work
Moraxella catarrhalis = conditions: in µg/mL; cited from earlier work
Brucella canis = conditions: 2×10 mg/kg; cited from earlier work
[7] = prolonged exposure to clinical concentrations; cited from earlier work
Streptococcus faecalis = conditions: elevated pressures; cited from earlier work
Salmonella typhimurium = conditions: elevated pressures; cited from earlier work
E. coli = conditions: elevated pressures; cited from earlier work
methionine synthetase = conditions: cited from earlier work
S. aureus = conditions: elevated pressures; cited from earlier work
rat leukemia (BNML) = conditions: nitrous oxide plus cycloleucine; cited from earlier work
rRNA of S. cerevisiae = conditions: cited from earlier work
virion plaque formation = conditions: 10 μM; cited from earlier work
tRNA methylation = conditions: cited from earlier work
cellular toxicity = conditions: cited from earlier work
S. antibioticus = conditions: cited from earlier work
Cryptosporidium parvum = conditions: in vivo; cited from earlier work
[8] = tested on: vaccinia virion mRNA(nucleoside-2'-)methyltransferase; conditions: cited from earlier work
[9] = tested on: DNA methylases from S. antibioticus; conditions: non-sinefungin producer; cited from earlier work
[10] = tested on: Newcastle disease virion mRNA(guanine-7-)methyltransferase; conditions: cited from earlier work
cutaneous Leishmaniasis = conditions: mouse, in vivo; cited from earlier work
[11] = tested on: vaccinia virion mRNA(guanine-7)methyltransferase; conditions: cited from earlier work
[12] = tested on: RNA methyltransferase from Streptomyces antibioticus; conditions: 50 μM; cited from earlier work
[13] = tested on: RNA methyltransferases from Streptomyces (S. antibioticus, S. incarnatus, S. griseolus); conditions: cited from earlier work
adenosine deaminase = conditions: cited from earlier work
lysosomal ADA = conditions: 0.02 mM; cited from earlier work
neoplastic cells = conditions: cited from earlier work
[14] = 1 mg/kg/day for 5 days; cited from earlier work
[15] = tested on: 28S and 18S rRNA formation; conditions: cited from earlier work

## CCC[C@@H]1C[C@@H](C(=O)N[C@@H]([C@H]2O[C@H](SC)[C@H](O)[C@@H](O)[C@H]2O)[C@H](C)Cl)N(C)C1 [clindamycin]
Anaerobic bacteria
  activity against anaerobic bacteria: potent against anaerobic bacteria

## CC[C@H]1OC(=O)[C@H](C)[C@@H](O[C@H]2C[C@@](C)(OC)[C@@H](O)[C@H](C)O2)[C@H](C)[C@@H](O[C@@H]2O[C@H](C)C[C@H](N(C)C)[C@H]2O)[C@](C)(OC)C[C@@H](C)C(=O)[C@H](C)[C@@H](O)[C@]1(C)O [Clarithromycin]
[1]
  MIC90: 0.03-0.25
Listeria monocytogenes
  MIC90: 0.12-2.0
[2]
  MIC90: 0.015 µg/mL (≈ 0.0201 µM)
[3]
  MIC90: 0.12-0.24
Clostridium perfringens
  MIC90: 0.5-2.0
Mycoplasma pneumoniae
  MIC90: 0.008-0.03
Chlamydia trachomatis
  MIC90: 0.06-0.125
Neisseria gonorrhoeae
  MIC90: 0.25-2.0
Bacteroides fragilis
  MIC90: 2.0-8.0
Campylobacter species
  MIC90: 1.0-8.0
H. influenzae
  H. influenzae activity: enhanced H. influenzae activity
Haemophilus influenzae
  MIC90: 2.0-16.0
[4]
  MIC90: 0.007
Legionella pneumophila
  MIC90: 0.25
Streptococcus pneumoniae
  MIC90: 0.015
Viridans streptococci
  MIC90: 0.03 µg/mL (≈ 0.0401 µM)
[5]
  stability: better stability properties
[6]
  MIC90: > 128 µg/mL
Moraxella catarrhalis
  MIC90: 0.25-1.0

## [H]/N=C(/N)N[C@H]1[C@H](O)[C@@H](O)[C@H](O[C@@H]2O[C@@H](C)[C@](O)(C=O)[C@H]2O[C@@H]2O[C@@H](CO)[C@H](O)[C@@H](O)[C@@H]2NC)[C@@H](N/C(N)=N\[H])[C@@H]1O [streptomycin]
Brucella canis
  surviving bacteria: only a minor reduction in the number of surviving bacteria

## [N-]=[N+]=O [nitrous oxide]
[7]
  adverse effects of prolonged exposure: inhibits cellular proliferation and can lead to megaloblastic anemia, leukopenia, and thrombocytopenia
Streptococcus faecalis
  inhibition of bacteria: inhibited
Salmonella typhimurium
  inhibition of bacteria: inhibited
E. coli
  inhibition of bacteria: inhibited
Methionine synthetase
  methionine synthetase: inhibiting methionine synthetase
S. aureus
  inhibition of bacteria: inhibited
Rat leukemia (BNML)
  growth inhibiting effects: synergistic growth inhibiting effects

## Nc1ncnc2c1ncn2[C@@H]1O[C@H](C[C@@H](N)CC[C@H](N)C(=O)O)[C@@H](O)[C@H]1O [sinefungin]
rRNA of S. cerevisiae
  rRNA methylation / stable 18S rRNA: inhibits methylation of rRNA in S.cerevisiae and leads to a decrease in stable 18S rRNA
Virion plaque formation
  inhibition of virion plaque formation: significant inhibition of virion plaque formation
tRNA methylation
  inhibition of methylation by base: inhibits the methylation of adenine or guanine to a greater extent than cytosine in tRNA
tRNA methylation; listed as Sinefungin
  inhibition of methylation by base: very strongly inhibits the methylation of G in position 2 and 7, and that of A in position 1 and 6
Cellular toxicity; 10 μM
  cellular toxicity: no cellular toxicity was detected
Cellular toxicity; higher concentrations (above 10 μM)
  cellular toxicity: significant cellular toxicity
S. antibioticus
  sporulation: inhibits sporulation
  synthesis of DNA methyltransferases: didn't inhibit the synthesis of DNA methyltransferases
Cryptosporidium parvum
  usable dosage in rat model: 10 mg/kg/day
[8]
  inhibition: potent inhibitors
[9]
  inhibition of DNA methylases: noticeably inhibited
[10]
  inhibition: potent inhibitors
Cutaneous Leishmaniasis
  optimum dosage: 4 mg/kg/day
  optimum dosage: times lower than the LD50: 50 times
[11]; 100 μM
  inhibition: 100%
[11]
  inhibition: potent inhibitors
[12]
  inhibition: 96%
[13]
  inhibition of RNA methyltransferases: strongly inhibit RNA methyltransferases; also recorded: inhibited RNA methyltransferase

## OC[C@H]1O[C@@H](n2cnc3c2NC=NC[C@H]3O)C[C@@H]1O [2'-deoxyconformycin (pentostatin)]
Adenosine deaminase
  ADA inhibition: potent inhibitors of ADA
Lysosomal ADA
  inhibition of lysosomal ADA: > 97%
Neoplastic cells
  safe and effective low weekly dose (protracted ADA inhibition in neoplastic cells): 0.13 mg/kg
[14]
  tolerability in patients: minimal distress

## Nc1ncn([C@@H]2O[C@H](CO)[C@@H](O)[C@H]2O)c(=O)n1 [5-Azacitidine]
[15]
  formation of 28S and 18S RNA: severely inhibited
